Data as given in article PMC10597649, “Effect of Astragali radix extract on pharmacokinetic behavior of dapagliflozin in healthy and type 2 diabetic rats” (Frontiers in Pharmacology, 2023).
Read-outs that look alike come from different tables or passages of the source.

Assays:
[1] = ref Kasichayanula et al., 2011, cited from earlier work
P-gp = conditions: ref Obermeier et al., 2010; cited from earlier work
[2] = for Accuracy (RE, %): rat plasma, n = 6
Protocol: Stability of DAPA in rat plasma was evaluated by analyzing six replicates of QC samples at low and high concentrations under different conditions. Short-term stability was investigated by keeping the samples at room temperature (25°C) for 12 h and autosampler (4°C) for 24 h, respectively. Freeze-thaw stability was investigated by three freeze-thawing cycles, i.e., the samples were frozen for 7 d at -80°C and thawed 3 h at room temperature for each cycle. Long-term stability was investigated by keeping the samples at -80°C for 1 month.

[3] = ref Kasichayanula et al., 2013, cited from earlier work
[4] = Pharmacokinetics of DAPA in healthy rats (alone or co-administered with ARE), plasma by UPLC-MS/MS; type: in vivo, Sprague Dawley (SD) rats; conditions: for MRT last: read-out: MRT(0-t)
Protocol: The column temperature was maintained at 40°C. […] The sample injection volume was 2 μL. […] The ion spray voltage was set at […]. […] The source temperature was kept at 200°C. The collision gas was set at low flow rate. […] The samples were processed by the procedure described above.

[5] = CD group: healthy rats, DAPA alone, single intragastric dose 1.05 mg/kg, n = 6, mean ± SD
[6] = CDA group compared to CD group (healthy rats, with ARE versus DAPA alone)
[7] = CDA group: healthy rats, ARE 300 mg/kg intragastric once a day for 7 days + DAPA single dose 1.05 mg/kg on day 7, n = 6, mean ± SD
[8] = CDA-H group: healthy rats, ARE 900 mg/kg once a day for 7 days + DAPA single dose 1.05 mg/kg on day 7, n=6, mean ± SD
[9] = CDA-L group: healthy rats, ARE 300 mg/kg once a day for 7 days + DAPA single dose 1.05 mg/kg on day 7, n=6, mean ± SD
[10] = male, Sprague-Dawley, rat, plasma, po, 1.05 mg/kg, CD group: healthy rats, DAPA alone, single intragastric dose 1.05 mg/kg, n = 6, mean ± SD
[11] = male, Sprague-Dawley, rat, plasma, po, 1.05 mg/kg, CDA-H group: healthy rats, ARE 900 mg/kg once a day for 7 days + DAPA single dose 1.05 mg/kg on day 7, n=6, mean ± SD
[12] = male, Sprague-Dawley, rat, plasma, po, 1.05 mg/kg, CDA-L group: healthy rats, ARE 300 mg/kg once a day for 7 days + DAPA single dose 1.05 mg/kg on day 7, n=6, mean ± SD
[13] = male, Sprague-Dawley, rat, plasma, po, CDA group: healthy rats, ARE 300 mg/kg intragastric once a day for 7 days + DAPA single dose 1.05 mg/kg on day 7, n = 6, mean ± SD

CCOc1ccc(Cc2cc([C@@H]3O[C@H](CO)[C@@H](O)[C@H](O)[C@H]3O)ccc2Cl)cc1 [DAPA, Dapagliflozin]
increase of C max ([1]; patients with mild liver function damage versus healthy subjects): 12% | increase of C max ([1]; patients with moderate liver function damage versus healthy subjects): 12% | increase of C max ([1]; patients with severe liver function damage versus healthy subjects): 40% | P-gp substrate (P-gp): substrate of P-gp | Accuracy (RE, %) ([2]; freeze thaw (3 cycles, 7 d at -80°C, thawed 3 h at room temperature), 33.5 ng/mL): -4.72% | Accuracy (RE, %) ([2]; freeze thaw (3 cycles, 7 d at -80°C, thawed 3 h at room temperature), 975 ng/mL): -3.71% | Accuracy (RE, %) ([2]; long term (-80°C, 30d), 33.5 ng/mL): -2.96% | Accuracy (RE, %) ([2]; long term (-80°C, 30d), 975 ng/mL): -2.97% | Accuracy (RE, %) ([2]; refrigerator (4°C, 24 h), 33.5 ng/mL): -1.37% | Accuracy (RE, %) ([2]; refrigerator (4°C, 24 h), 975 ng/mL): -2.63% | Accuracy (RE, %) ([2]; room temperature (25°C, 12 h), 33.5 ng/mL): -1.19% | Accuracy (RE, %) ([2]; room temperature (25°C, 12 h), 975 ng/mL): -2.87% | Stability in the rat plasma ([2]; room temperature (25°C) for 12 h, 4°C for 24 h, -80°C for 30 days, three freeze-thaw cycles): stable | increase of C max ([3]; T2DM patients with mild renal function damage versus T2DM patient without): 4% | increase of C max ([3]; T2DM patients with moderate renal function damage versus T2DM patient without): 6% | increase of C max ([3]; T2DM patients with severe renal function damage versus T2DM patient without): 9% | AUC(0-inf) [4, 5]: 3868.26±344.05 h*(ng/mL) | AUC(0-t) [4, 5]: 3810.20±343.81 h*(ng/mL) | CL [4, 5]: 273.31±25.26 (mL/h)/kg | V [4, 5]: 1.42595 ± 0.16328 L/kg | decrease of MRT [4, 6]: 25.11% | decrease of t max [4, 6]: 55.91% | increase of C max [4, 6]: 30.99% | AUC(0-inf) [4, 7]: 3845.72±851.15 h*(ng/mL) | AUC(0-t) [4, 7]: 3783.24±852.77 h*(ng/mL) | C max [4, 7]: 504.33 ± 99.44 ng/mL | CL [4, 7]: 283.83±58.84 (mL/h)/kg | V [4, 7]: 1.5704 ± 0.40141 L/kg | AUC(0-inf) [4, 8]: 3946.77±756.89 h*(ng/mL) | AUC(0-t) [4, 8]: 3868.01±745.36 h*(ng/mL) | CL [4, 8]: 273.49±46.98 (mL/h)/kg | V [4, 8]: 1.55445 ± 0.21969 L/kg | AUC(0-inf) [4, 9]: 3845.72±851.15 h*(ng/mL) | AUC(0-t) [4, 9]: 3783.24±852.77 h*(ng/mL) | CL [4, 9]: 283.83±58.84 (mL/h)/kg | Cmax [4, 9]: 504.33 ± 99.44 ng/mL | V [4, 9]: 1.5704 ± 0.40141 L/kg | difference of t 1/2, AUC(0-t), AUC(0-inf), V and CL ([4]; between the CD group and the CDA group (healthy rats)): no significant difference | Tmax [4, 10]: 5.67 ± 0.82 h | half-life [4, 10]: 3.61 ± 0.21 h | Cmax ([4]; male, Sprague-Dawley, rat, plasma, po, 1.05 mg/kg, CD group: healthy rats, DAPA alone, single intragastric dose 1.05 mg/kg, n = 6, mean ± SD, read-out: C max): 385 ± 46 ng/mL | MRT last [4, 10]: 6.89 ± 0.28 h | Tmax [4, 11]: 2.61 ± 0.9 h | half-life [4, 11]: 3.96 ± 0.17 h | Cmax ([4]; male, Sprague-Dawley, rat, plasma, po, 1.05 mg/kg, CDA-H group: healthy rats, ARE 900 mg/kg once a day for 7 days + DAPA single dose 1.05 mg/kg on day 7, n=6, mean ± SD, read-out: Cmax): 538 ± 123 ng/mL | MRT last [4, 11]: 5.04 ± 0.27 h | Tmax [4, 12]: 2.5 ± 1.22 h | half-life [4, 12]: 3.8 ± 0.22 h | MRT last [4, 12]: 5.16 ± 0.36 h | Tmax [4, 13]: 2.5 ± 1.22 h | half-life [4, 13]: 3.8 ± 0.22 h | MRT last [4, 13]: 5.16 ± 0.36 h
